From publication PMC9975586, “Inhibitory effect of Selaginella doederleinii hieron on human cytochrome P450” (Frontiers in Pharmacology, 2023)
pIC50: −log10 of the molar value. Read-outs that look alike come from different tables or passages of the source.

Columns and labels:
CYP1A2 = molecular target: T1, CYP1A2 (Homo sapiens, UniProt P05177); experiment: CYP450 cocktail inhibition assay (LC-MS/MS, human liver microsomes); format: in vitro ADME; conditions: for pIC50: HLM 0.5 mg/mL, substrate Phenacetin 10 μM, 15 min
T1 sequence (P05177 1-516): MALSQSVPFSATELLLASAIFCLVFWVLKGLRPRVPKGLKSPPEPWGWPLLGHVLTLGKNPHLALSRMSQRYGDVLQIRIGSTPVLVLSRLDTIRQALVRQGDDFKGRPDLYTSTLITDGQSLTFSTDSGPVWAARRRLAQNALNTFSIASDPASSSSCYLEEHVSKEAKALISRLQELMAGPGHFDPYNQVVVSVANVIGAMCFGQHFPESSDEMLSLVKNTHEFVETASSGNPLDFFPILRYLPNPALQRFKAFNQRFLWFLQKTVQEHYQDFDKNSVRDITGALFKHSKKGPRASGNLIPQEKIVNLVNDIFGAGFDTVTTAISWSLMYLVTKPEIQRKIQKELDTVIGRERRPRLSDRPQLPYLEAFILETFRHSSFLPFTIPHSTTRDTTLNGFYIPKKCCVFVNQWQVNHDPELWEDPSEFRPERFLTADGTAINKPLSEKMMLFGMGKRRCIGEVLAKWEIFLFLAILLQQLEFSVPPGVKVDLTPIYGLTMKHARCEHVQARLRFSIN
Experimental: (§1) The contents of organic solvent and DMSO in incubation mixture was under 1% (v/v) and 0.1% (v/v) respectively. Reactions were terminated by adding 200 µL of an ice-cold stop solution consisting of methanol containing Rutin (2 µg/ml) as internal standard. Samples were subsequently cooled in ice bath to precipitate proteins. Supernatants were collected into clean tubes after centrifugation at 12000 rpm at 4°C for 10 min prior to inject into LC-MS/MS.
(§2) Percentages of control activity were calculated to determine inhibition potency. The inhibition curves were obtained by incubating the cocktail of substrates with 10–11 different compounds’ concentrations, where Delicaflavone and Amentoflavone were 0–50 µM.
(§3) For specific MRM parameters, please refer to Supplementary Table S3.

CYP2C19 [1] = molecular target: T2, CYP2C19 (Homo sapiens, UniProt P33261); experiment: as above
T2 sequence (P33261 whole entry): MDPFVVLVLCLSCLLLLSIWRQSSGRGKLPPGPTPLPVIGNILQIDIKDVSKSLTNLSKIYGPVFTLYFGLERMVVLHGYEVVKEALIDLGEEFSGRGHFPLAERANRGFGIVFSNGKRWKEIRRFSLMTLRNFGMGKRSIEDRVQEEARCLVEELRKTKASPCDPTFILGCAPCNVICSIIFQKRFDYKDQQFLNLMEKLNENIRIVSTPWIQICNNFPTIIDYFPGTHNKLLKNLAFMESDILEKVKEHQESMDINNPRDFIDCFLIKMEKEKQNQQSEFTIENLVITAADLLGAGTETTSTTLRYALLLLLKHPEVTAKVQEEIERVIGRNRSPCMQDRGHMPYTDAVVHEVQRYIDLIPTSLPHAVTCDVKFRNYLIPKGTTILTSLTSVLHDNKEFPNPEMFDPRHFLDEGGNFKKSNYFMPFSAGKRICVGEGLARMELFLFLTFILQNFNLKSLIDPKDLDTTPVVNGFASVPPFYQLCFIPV
Experimental: as §1, §2, §3

CYP2C8 = molecular target: T3, CYP2C8 (Homo sapiens, UniProt P10632); experiment: as above; conditions: for inhibition at 15 min, 10 µM: human, microsomes, pH 7.4
T3 sequence (P10632 1-490): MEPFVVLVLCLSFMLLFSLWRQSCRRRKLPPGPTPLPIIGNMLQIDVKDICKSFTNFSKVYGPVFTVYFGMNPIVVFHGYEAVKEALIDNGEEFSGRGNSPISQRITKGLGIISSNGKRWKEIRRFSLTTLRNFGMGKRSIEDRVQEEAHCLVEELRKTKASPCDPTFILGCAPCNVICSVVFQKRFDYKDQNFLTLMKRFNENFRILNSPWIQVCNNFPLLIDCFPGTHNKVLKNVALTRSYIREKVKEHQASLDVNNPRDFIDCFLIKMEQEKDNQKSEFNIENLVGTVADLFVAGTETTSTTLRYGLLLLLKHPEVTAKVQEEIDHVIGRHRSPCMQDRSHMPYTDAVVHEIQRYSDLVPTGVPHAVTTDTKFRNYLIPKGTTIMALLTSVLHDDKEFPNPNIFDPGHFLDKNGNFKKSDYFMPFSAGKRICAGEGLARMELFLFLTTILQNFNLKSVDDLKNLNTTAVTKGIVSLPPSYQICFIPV
Experimental: as §1, §2, §3

CYP2C9 = CYP2C9 (Homo sapiens, UniProt P11712); experiment: as above; conditions: for inhibition at 15 min, 10 µM: human, microsomes, pH 7.4
CYP2C9, sequence (P11712 whole entry): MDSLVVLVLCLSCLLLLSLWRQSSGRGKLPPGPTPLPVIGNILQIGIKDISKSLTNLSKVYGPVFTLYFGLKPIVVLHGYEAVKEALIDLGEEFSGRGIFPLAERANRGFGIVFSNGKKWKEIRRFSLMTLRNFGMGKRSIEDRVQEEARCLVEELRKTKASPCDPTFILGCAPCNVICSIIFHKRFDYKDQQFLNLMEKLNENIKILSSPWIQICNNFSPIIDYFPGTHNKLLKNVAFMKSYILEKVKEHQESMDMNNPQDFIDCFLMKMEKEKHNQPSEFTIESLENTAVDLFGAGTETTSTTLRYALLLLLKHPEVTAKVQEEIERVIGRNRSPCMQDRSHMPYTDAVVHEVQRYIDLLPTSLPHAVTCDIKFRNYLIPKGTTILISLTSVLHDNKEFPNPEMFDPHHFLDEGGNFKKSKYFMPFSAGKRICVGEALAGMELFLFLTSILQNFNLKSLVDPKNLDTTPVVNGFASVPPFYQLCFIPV
Experimental: as §1, §2, §3

CYP2D6 [2] = molecular target: T4, CYP2D6 (Homo sapiens, UniProt P10635); experiment: as above
T4 sequence (P10635 whole entry): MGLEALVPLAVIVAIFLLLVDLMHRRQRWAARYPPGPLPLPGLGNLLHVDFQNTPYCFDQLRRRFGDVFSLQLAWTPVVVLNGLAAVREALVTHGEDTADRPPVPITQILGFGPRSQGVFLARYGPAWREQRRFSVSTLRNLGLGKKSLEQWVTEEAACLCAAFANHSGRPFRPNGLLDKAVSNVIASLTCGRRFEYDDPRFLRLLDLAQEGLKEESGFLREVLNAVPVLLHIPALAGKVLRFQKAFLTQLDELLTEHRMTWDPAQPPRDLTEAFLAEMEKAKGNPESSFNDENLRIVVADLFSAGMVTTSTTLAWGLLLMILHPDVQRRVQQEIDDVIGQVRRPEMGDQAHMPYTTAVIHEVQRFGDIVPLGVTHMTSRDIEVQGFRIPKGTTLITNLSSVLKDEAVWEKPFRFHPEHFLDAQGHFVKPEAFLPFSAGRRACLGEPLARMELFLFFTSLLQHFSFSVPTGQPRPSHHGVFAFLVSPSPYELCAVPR
Experimental: as §1, §2, §3

CYP2E1 = CYP2E1 (Homo sapiens, UniProt P05181); experiment: as above; conditions: for inhibition at 15 min, 10 µM: human, pH 7.4
CYP2E1, sequence (P05181 whole entry): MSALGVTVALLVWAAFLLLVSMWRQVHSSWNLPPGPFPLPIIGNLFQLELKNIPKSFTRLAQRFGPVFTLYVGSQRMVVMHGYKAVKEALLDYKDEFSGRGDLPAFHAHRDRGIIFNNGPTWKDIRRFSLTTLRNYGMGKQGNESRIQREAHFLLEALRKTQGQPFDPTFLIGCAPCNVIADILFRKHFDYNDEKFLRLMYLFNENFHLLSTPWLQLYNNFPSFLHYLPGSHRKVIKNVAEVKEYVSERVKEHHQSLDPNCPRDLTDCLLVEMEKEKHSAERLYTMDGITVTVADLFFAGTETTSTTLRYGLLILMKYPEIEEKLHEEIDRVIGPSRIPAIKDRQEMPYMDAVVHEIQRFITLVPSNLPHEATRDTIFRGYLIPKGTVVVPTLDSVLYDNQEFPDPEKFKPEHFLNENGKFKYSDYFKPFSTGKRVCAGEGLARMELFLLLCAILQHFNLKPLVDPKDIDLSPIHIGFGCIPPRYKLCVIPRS
Experimental: as §1, §2, §3

CYP3A = CYP3A (Homo sapiens, UniProt P08684); experiment: as above; format: in vitro ADME; conditions: for IC50 at 15 min / inhibition at 15 min, 10 µM: human, liver microsomes
CYP3A, sequence (P08684 2-503): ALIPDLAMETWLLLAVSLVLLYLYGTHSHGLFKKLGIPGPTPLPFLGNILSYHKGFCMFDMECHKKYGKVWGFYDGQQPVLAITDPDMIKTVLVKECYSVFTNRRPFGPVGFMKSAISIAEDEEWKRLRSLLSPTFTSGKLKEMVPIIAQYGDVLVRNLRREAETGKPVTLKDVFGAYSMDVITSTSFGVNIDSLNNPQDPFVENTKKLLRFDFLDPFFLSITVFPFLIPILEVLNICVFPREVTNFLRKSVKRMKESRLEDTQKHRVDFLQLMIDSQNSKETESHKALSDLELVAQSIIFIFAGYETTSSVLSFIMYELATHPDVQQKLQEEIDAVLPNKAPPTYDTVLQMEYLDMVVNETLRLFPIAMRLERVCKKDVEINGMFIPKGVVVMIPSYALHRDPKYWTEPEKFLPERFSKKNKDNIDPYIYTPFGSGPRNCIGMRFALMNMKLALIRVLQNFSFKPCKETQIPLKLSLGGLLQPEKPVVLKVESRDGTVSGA
Experimental: Inhibitory effect of SDEA on CYP450 isoforms was determined by cocktail assay. […] The amount of metabolites produced by incubation without SDEA (control group) was taken as 100%, then draw inhibition efficiency curve.

CYP2C19 [3] = molecular target: T2, CYP2C19; experiment: Time-dependent inhibition study (pre-incubation with HLM with/without NADPH, cocktail assay); format: in vitro ADME; conditions: single point screening; SDEA 0.5 μg/ml, Amentoflavone 0.1 μM, Delicaflavone 2 μM; 35 min pre-incubation with/without NADPH
Experimental: (§4) Enzymes that may be involved in time-dependent were pre-incubated for 0, 5, 10, 15 and 35 min respectively, and then re-incubated to determine the type of inhibition. Residual enzyme activity pre-incubated without NADPH was set as the control group, then drawing suppression curves based on the measured data.

CYP2D6 [4] = molecular target: T4, CYP2D6; experiment: as above; format: in vitro ADME; conditions: single point screening; SDEA 0.5 μg/ml, Amentoflavone 0.1 μM, Delicaflavone 2 μM; 35 min pre-incubation with/without NADPH
Experimental: as §4

CYP3A (Testosterone) = experiment: as above; format: in vitro ADME, human; conditions: single point screening; SDEA 0.5 μg/ml, Delicaflavone 2 μM; 35 min pre-incubation with/without NADPH
Experimental: as §4

[5] = pH 7.4, probe Dextromethorphan (3-methoxymorphinan formation, in cocktail)
[6] = pH 7.4, probe Testosterone 5 µM (in cocktail)
[7] = pH 7.4, probe Testosterone (in cocktail), single-point, 10 μM, cocktail assay, HLM, substrate Testosterone, read-out: inhibitory effect on CYP3A (Testosterone)
[8] = single-point, 10 μM, cocktail assay, HLM

| SMILES | pIC50 (CYP1A2) | pIC50 (CYP2C19 [1]) | pIC50 (CYP2C8) | inhibition at 15 min, 10 µM (CYP2C8) | pIC50 (CYP2C9) | inhibition at 15 min, 10 µM (CYP2C9) | pIC50 (CYP2E1) | inhibition at 15 min, 10 µM (CYP2E1; microsomes) | IC50 at 15 min (CYP3A; [5]) | IC50 at 15 min (CYP3A; [6]) | inhibition at 15 min, 10 µM (CYP3A; [7]) | further results |
| --- | --- | --- | --- | --- | --- | --- | --- | --- | --- | --- | --- | --- |
| O=c1cc(-c2ccc(O)c(-c3c(O)cc(O)c4c(=O)cc(-c5ccc(O)cc5)oc34)c2)oc2cc(O)cc(O)c12 [Amentoflavone] | 5.43 | 5.97 | 6.84 | > 50% | 6.85 | > 50% | 5.98 | > 50% | 0.827 µM | 0.435 µM |  | inhibition at 15 min, 10 µM (CYP1A2; human, liver microsomes, pH 7.4, probe Phenacetin (in cocktail), single-point, 10 μM, HLM, read-out: inhibitory effect on CYP1A2): > 50%; inhibition at 15 min, 10 µM (CYP2C19 [1]; human, microsomes, pH 7.4): > 50%; pIC50 (CYP2D6 [2]): 5.34; inhibition at 15 min, 10 µM (CYP2D6 [2]; human, microsomes, pH 7.4): > 50%; inhibition at 15 min, 10 µM (CYP3A; pH 7.4, single-point, 10 μM, cocktail assay, HLM, substrate not specified, read-out: inhibitory effect on CYP3A): > 50% |
| O=c1cc(-c2ccc(O)cc2)oc2cc(O)cc(O)c12 [Apigenin] |  |  |  | > 50% |  | > 50% |  | > 50% |  |  | > 50% |  |
| O=c1cc(-c2ccc(Oc3c(-c4ccc(O)cc4)oc4cc(O)cc(O)c4c3=O)cc2)oc2cc(O)cc(O)c12 [Delicaflavone] | 3.98 | 4.14 | 4.87 |  | 4.40 |  | 5.54 |  | 33.3 µM | 7.25 µM |  | inhibitory effect on CYP1A2 (CYP1A2; single-point, 10 μM, HLM): no obvious inhibitory effect; inhibitory effect on CYP2C19 (CYP2C19 [1]; [8]): no obvious inhibitory effect; inhibitory effect on CYP2C8 (CYP2C8; [8]): no obvious inhibitory effect; inhibitory effect on CYP2C9 (CYP2C9; [8]): no obvious inhibitory effect; inhibitory effect on CYP2D6 (CYP2D6 [2]; [8]): no obvious inhibitory effect; inhibitory effect on CYP2E1 (CYP2E1; [8]): weak inhibitory effect; inhibitory effect on CYP3A (CYP3A; single-point, 10 μM, cocktail assay, HLM, substrate not specified): weak inhibitory effect; time-dependent inhibition on CYP2C19 (CYP2C19 [3]): did not produce time-dependent inhibition effect; time-dependent inhibition on CYP2D6 (CYP2D6 [4]): did not produce time-dependent inhibition effect; time-dependent inhibition on CYP3A (Testosterone) (CYP3A (Testosterone)): did not produce time-dependent inhibition effect |
| COc1cc2c(cc1OC)-c1cc3ccc(OC)c(OC)c3c[n+]1CC2 [Palmatine] |  |  |  |  |  |  |  |  |  |  | > 50% | inhibitory effect on CYP2E1 (CYP2E1; microsomes, 10 µM): weak inhibitory effect |
